This note sets out measurements from US8137718B2, “Probiotic infant products” (Mead Johnson Nutrition Company, priority 2008, dated 2012).

A value given as a limit tells only on which side of the number the result lay.

The subject of the experiment is B. longum AH1205. As to the kind of experiment: Minimum inhibitory concentration (MIC) of antibiotics for the B. longum strain. The experiment is classed as cell-based, Bifidobacterium longum. The settings on record: against the B. longum strain AH1205. The procedure: Antibiotic sensitivity profiles of the B. longum strain were determined using the “disc susceptibility” assay. Cultures were grown in the appropriate broth medium for 24-48 hours, spread-plated (100 μl) onto agar media, and discs containing known concentrations of the antibiotics were placed onto the agar. Strains were examined for antibiotic sensitivity after 1-2 days incubation at 37° C. under anaerobic conditions. Strains were considered sensitive if zones of inhibition of 1 mm or greater were seen. The minimum inhibitory concentration (MIC) for each antibiotic was independently assessed.

On to `CN[C@H](CC(C)C)C(=O)N[C@H]1C(=O)N[C@@H](CC(N)=O)C(=O)N[C@H]2C(=O)N[C@H]3C(=O)N[C@H](C(=O)N[C@H](C(=O)O)c4cc(O)cc(O)c4-c4cc3ccc4O)[C@H](O)c3ccc(c(Cl)c3)Oc3cc2cc(c3O[C@@H]2O[C@H](CO)[C@@H](O)[C@H](O)[C@H]2O[C@H]2C[C@](C)(N)[C@H](O)[C@H](C)O2)Oc2ccc(cc2Cl)[C@H]1O` [vancomycin], for which the “minimum inhibitory concentration (MIC)” value is listed as 0.75.
For `CCC[C@@H]1C[C@@H](C(=O)N[C@@H]([C@H]2O[C@H](SC)[C@H](O)[C@@H](O)[C@H]2O)[C@H](C)Cl)N(C)C1` [clindamycin], the “minimum inhibitory concentration (MIC)” value was found to be 0.032.
Next, `Cc1ncc([N+](=O)[O-])n1CCO` [metronidazole]: > 256.
